Measured values reported in patent US20240109864A1, “SUBSTITUTED PYRAZOLYL PIPERIDINE CARBOXYLIC ACIDS” (BAYER AKTIENGESELLSCHAFT, priority 2020, published 2024).
Structures can show the parent of a compound that is named as a salt.

Columns and labels:
[1] = molecular target: T1, recombinant guanylate cyclase reporter cell line (Rattus norvegicus, UniProt P20595); assay: Effect on a recombinant guanylate cyclase reporter cell line; assay type: cell-based; conditions: in some cases mean values from individual determinations; for MEC: MEC = minimum effective concentration; for EC50: half maximal effective concentration
T1 construct: expressed in transfected cells
T1 sequence (P20595 1-619): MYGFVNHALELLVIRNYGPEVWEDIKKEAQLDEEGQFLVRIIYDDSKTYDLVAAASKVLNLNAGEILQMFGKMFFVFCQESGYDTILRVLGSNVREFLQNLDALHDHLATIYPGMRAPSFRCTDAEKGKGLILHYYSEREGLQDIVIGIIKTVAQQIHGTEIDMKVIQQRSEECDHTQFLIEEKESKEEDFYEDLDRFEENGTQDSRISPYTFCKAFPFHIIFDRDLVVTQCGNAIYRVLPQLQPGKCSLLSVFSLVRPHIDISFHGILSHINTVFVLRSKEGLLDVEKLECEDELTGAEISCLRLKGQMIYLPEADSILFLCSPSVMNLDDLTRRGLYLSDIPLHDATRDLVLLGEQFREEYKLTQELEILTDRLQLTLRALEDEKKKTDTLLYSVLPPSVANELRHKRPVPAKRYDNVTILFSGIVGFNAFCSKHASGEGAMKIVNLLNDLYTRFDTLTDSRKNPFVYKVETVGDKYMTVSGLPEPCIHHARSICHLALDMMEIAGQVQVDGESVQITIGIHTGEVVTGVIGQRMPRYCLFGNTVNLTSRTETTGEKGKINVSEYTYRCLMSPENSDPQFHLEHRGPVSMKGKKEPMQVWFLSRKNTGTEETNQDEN
T1 sequence (P19686 1-690 partner): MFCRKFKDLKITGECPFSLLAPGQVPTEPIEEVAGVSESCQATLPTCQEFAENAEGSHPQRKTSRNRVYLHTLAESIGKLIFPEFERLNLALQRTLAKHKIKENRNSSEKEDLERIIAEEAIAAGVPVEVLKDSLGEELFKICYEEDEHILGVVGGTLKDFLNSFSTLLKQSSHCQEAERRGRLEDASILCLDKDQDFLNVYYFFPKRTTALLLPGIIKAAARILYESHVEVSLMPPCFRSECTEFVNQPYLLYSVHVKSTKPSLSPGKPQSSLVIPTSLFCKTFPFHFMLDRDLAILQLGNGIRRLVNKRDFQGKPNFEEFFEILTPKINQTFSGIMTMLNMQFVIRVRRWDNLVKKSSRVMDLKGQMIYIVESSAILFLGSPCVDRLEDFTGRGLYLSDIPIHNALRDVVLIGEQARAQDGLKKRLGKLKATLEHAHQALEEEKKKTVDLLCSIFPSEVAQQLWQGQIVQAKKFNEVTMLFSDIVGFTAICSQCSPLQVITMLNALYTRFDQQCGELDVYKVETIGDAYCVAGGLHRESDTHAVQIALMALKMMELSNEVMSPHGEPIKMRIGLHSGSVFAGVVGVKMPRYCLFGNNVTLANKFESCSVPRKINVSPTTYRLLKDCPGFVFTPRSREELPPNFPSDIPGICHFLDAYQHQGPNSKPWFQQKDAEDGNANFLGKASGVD
Method: The cellular activity of the compounds according to the invention was determined using a recombinant guanylate cyclase reporter cell line, as described in F. Wunder et al., Anal. Biochem. 339, 104-112 (2005).

[2] = Pharmacokinetic parameters following intravenous administration in rats; assay type: in vivo
Method: (§1) The pharmacokinetic parameters of the compounds according to the invention were determined in male Wistar rats and/or in female beagles and/or in cynomolgus monkeys and/or in male CD-1 mice. Intravenous administration in the case of mice and rats was carried out by means of a species-specific plasma/DMSO formulation, and in the case of dogs and monkeys by means of a water/PEG400/ethanol formulation. In all species, oral administration of the dissolved substance was performed via gavage, based on a water/PEG400/ethanol formulation.
An internal standard (which may also be a chemically unrelated substance) was added to the samples of the compounds of the invention, calibration samples and qualifiers, and there followed protein precipitation by means of acetonitrile in excess. […] The supernatant was analysed by LC-MS/MS using C18 reversed-phase columns and variable mobile phase mixtures. The substances were quantified via the peak heights or areas from extracted ion chromatograms of specific selected ion monitoring experiments.
The plasma concentration/time plots determined were used to calculate the pharmacokinetic parameters such as AUC, Cmax, t1/2 (terminal half-life), F (bioavailability), MRT (mean residence time) and CL (clearance), by means of a validated pharmacokinetic calculation program. […]

[3] = Pharmacokinetic parameters following oral administration in rats; assay type: in vivo
Method: as §1
An internal standard (which may also be a chemically unrelated substance) was added to the samples of the compounds of the invention, calibration samples and qualifiers, and there followed protein precipitation by means of acetonitrile in excess. Addition of a buffer solution matched to the LC conditions, and subsequent vortexing, was followed by centrifugation at 1000 g. The supernatant was analysed by LC-MS/MS using C18 reversed-phase columns and variable mobile phase mixtures. The substances were quantified via the peak heights or areas from extracted ion chromatograms of specific selected ion monitoring experiments.
The plasma concentration/time plots determined were used to calculate the pharmacokinetic parameters such as AUC, Cmax, t1/2 (terminal half-life), F (bioavailability), MRT (mean residence time) and CL (clearance), by means of a validated pharmacokinetic calculation program.
Since the substance quantification was performed in plasma, it was necessary to determine the blood/plasma distribution of the substance in order to be able to adjust the pharmacokinetic parameters correspondingly. For this purpose, a defined amount of substance was incubated in K3 EDTA whole blood of the species in question in a rocking roller mixer for 20 min. After centrifugation at 1000 g, the plasma concentration was measured (by means of LC-MS/MS; see above) and determined by calculating the ratio of the Cblood/Cplasma value.

| Compound | MEC [1] | EC50 [1] | also measured |
| --- | --- | --- | --- |
| O=C(O)c1cnn(C2CCCN(c3cc(Cl)ccc3-c3ccc(N4CCN(CC5CC5)CC4)cc3)C2)c1C(F)(F)F (single isomer, unassigned) [Example 7, 1-[1-[5-Chloro-2-[4-[4-(cyclopropylmethyl)piperazin-1-yl]phenyl]phenyl]-3-piperidyl]-5-(trifluoromethyl)pyrazole-4-carboxylic acid hydrochloride] | 2.0 nM | – | AUCnorm [2]: 1.37 kg·h/L; bioavailability in comparison to prior art (WO 2012/058132) ([3]; after oral (p.o.) application): lower bioavailability; AUCnorm ([3]; oral administration in rats): 0.52 kg·h/L; F ([3]; oral administration in rats, F = bioavailability): 37.4% |
| CN1CCN(c2ccc(-c3ccc(Cl)cc3N3CCCC(n4ncc(C(=O)O)c4C(F)(F)F)C3)c(Cl)c2)CC1 (single isomer, unassigned) [Example 72, 1-[1-[5-Chloro-2-[2-chloro-4-(4-methylpiperazin-1-yl)phenyl]phenyl]-3-piperidyl]-5-(trifluoromethyl)pyrazole-4-carboxylic acid formic acid adduct] | 10.0 nM | 64.5 nM | – |
| CCN1CCN(c2ccc(-c3ccc(Cl)cc3N3CCCC(n4ncc(C(=O)O)c4C(F)(F)F)C3)c(C)c2)CC1 (single isomer, unassigned) [Example 73, 1-[1-[5-Chloro-2-[4-(4-ethylpiperazin-1-yl)-2-methyl-phenyl]phenyl]-3-piperidyl]-5-(trifluoromethyl)pyrazole-4-carboxylic acid hydrochloride] | 30.0 nM | 58 nM | – |
| O=C(O)c1cnn(C2CCCN(c3cc(Cl)ccc3-c3ccc(N4CCN(CC(F)(F)F)CC4)nc3)C2)c1C(F)(F)F (single isomer, unassigned) [Example 74, 1-[1-[5-Chloro-2-[6-[4-(2,2,2-trifluoroethyl)piperazin-1-yl]-3-pyridyl]phenyl]-3-piperidyl]-5-(trifluoromethyl)pyrazole-4-carboxylic acid hydrochloride] | – | 10.5 nM | MEC ([1]; hydrochloride): 1.0 nM |
| O=C(O)c1cnn(C2CCCN(c3cc(Cl)ccc3-c3ccc(N4CCN(CC(F)(F)F)CC4)nc3)C2)c1C(F)(F)F (single isomer, unassigned) [Example 75, 1-[1-[5-Chloro-2-[6-[4-(2,2,2-trifluoroethyl)piperazin-1-yl]-3-pyridyl]phenyl]-3-piperidyl]-5-(trifluoromethyl)pyrazole-4-carboxylic acid] | 3.0 nM | 16 nM | – |
| O=C(O)c1cnn(C2CCCN(c3cc(Cl)ccc3-c3ccc(N4CCN(CCC(F)(F)F)CC4)nc3)C2)c1C(F)(F)F (single isomer, unassigned) [Example 76, 1-[1-[5-Chloro-2-[6-[4-(3,3,3-trifluoropropyl)piperazin-1-yl]-3-pyridyl]phenyl]-3-piperidyl]-5-(trifluoromethyl)pyrazole-4-carboxylic acid hydrochloride] | 1.0 nM | 4.8 nM | – |
| O=C(O)c1cnn(C2CCCN(c3cc(Cl)ccc3-c3ccc(N4CCN(CC(F)(F)F)CC4)nc3)C2)c1C(F)(F)F (single isomer, unassigned) [Example 77, 1-[1-[5-Chloro-2-[6-[4-(2,2,2-trifluoroethyl)piperazin-1-yl]-3-pyridyl]phenyl]-3-piperidyl]-5-(trifluoromethyl)pyrazole-4-carboxylic acid] | 30.0 nM | 82.5 nM | – |
| O=C(O)c1cnn(C2CCCN(c3cc(Cl)ccc3-c3ccc(C4CN(CCC(F)(F)F)C4)cc3)C2)c1C(F)(F)F (single isomer, unassigned) [Example 78, 1-[1-[5-Chloro-2-[4-[1-(3,3,3-trifluoropropyl)azetidin-3-yl]phenyl]phenyl]-3-piperidyl]-5-(trifluoromethyl)pyrazole-4-carboxylic acid hydrochloride] | 1.0 nM | 13.2 nM | – |
| O=C(O)c1cnn(C2CCCN(c3cc(Cl)ccc3-c3ccc(C4CC4)nc3)C2)c1C(F)(F)F (single isomer, unassigned) [Example 79, 1-[1-[5-Chloro-2-(6-cyclopropyl-3-pyridyl)phenyl]-3-piperidyl]-5-(trifluoromethyl)pyrazole-4-carboxylic acid] | 1.0 nM | 3.6 nM | – |
| O=C(O)c1cnn(C2CCCN(c3cc(Cl)ccc3-c3ccc4c(c3)CCN(CC(F)(F)F)C4)C2)c1C(F)(F)F (single isomer, unassigned) [Example 80, 1-[1-[5-Chloro-2-[2-(2,2,2-trifluoroethyl)-3,4-dihydro-1H-isoquinolin-6-yl]phenyl]-3-piperidyl]-5-(trifluoromethyl)pyrazole-4-carboxylic acid] | 10.0 nM | 85.5 nM | – |
| CC(C)CN1CCc2cc(-c3ccc(Cl)cc3N3CCCC(n4ncc(C(=O)O)c4C(F)(F)F)C3)ccc2C1 (single isomer, unassigned) [Example 81, 1-[1-[5-Chloro-2-(2-isobutyl-3,4-dihydro-1H-isoquinolin-6-yl)phenyl]-3-piperidyl]-5-(trifluoromethyl)pyrazole-4-carboxylic acid hydrochloride] | 30.0 nM | 43 nM | – |
| CCC(=O)N1CCC(c2ccc(-c3ccc(Cl)cc3N3CCCC(n4ncc(C(=O)O)c4C(F)(F)F)C3)cc2)CC1 (single isomer, unassigned) [Example 82, 1-[1-[5-Chloro-2-[4-(1-propanoyl-4-piperidyl)phenyl]phenyl]-3-piperidyl]-5-(trifluoromethyl)pyrazole-4-carboxylic acid hydrochloride] | 0.3 nM | 3.9 nM | – |
| CCC(=O)N1CCC(c2ccc(-c3ccc(Cl)cc3N3CCCC(n4ncc(C(=O)O)c4C(F)(F)F)C3)cc2)CC1 (single isomer, unassigned) [Example 83, 1-[1-[5-Chloro-2-[4-(1-propanoyl-4-piperidyl)phenyl]phenyl]-3-piperidyl]-5-(trifluoromethyl)pyrazole-4-carboxylic acid hydrochloride] | 0.3 nM | 3.9 nM | – |
| O=C(O)c1cnn(C2CCCN(c3cc(Cl)ccc3-c3ccc(C4CCN(C(=O)C5CC5)CC4)cc3)C2)c1C(F)(F)F (single isomer, unassigned) [Example 84, 1-[1-[5-Chloro-2-[4-[1-(cyclopropanecarbonyl)-4-piperidyl]phenyl]phenyl]-3-piperidyl]-5-(trifluoromethyl)pyrazole-4-carboxylic acid hydrochloride] | – | 2.5 nM | MEC ([1]; hydrochloride): 0.3 nM |
| O=C(O)c1cnn(C2CCCN(c3cc(Cl)ccc3-c3ccc(C4CCN(C(=O)C5CC5)CC4)cc3)C2)c1C(F)(F)F (single isomer, unassigned) [Example 85, 1-[1-[5-Chloro-2-[4-[1-(cyclopropanecarbonyl)-4-piperidyl]phenyl]phenyl]-3-piperidyl]-5-(trifluoromethyl)pyrazole-4-carboxylic acid hydrochloride] | – | 1.1 nM | MEC ([1]; hydrochloride): <0.3 nM |
